How the values were obtained:
Type in all cases: in vivo
Setaria faberi (SETFA) [1] = assay: Pre-emergence biological efficacy, glasshouse, 1000 g/ha, evaluated after 13 days (100=total damage to plant; 0=no damage to plant); conditions: Setaria faberi, 312 h, rate 1,000 g/ha, read-out: Percentage damage caused to weed species, pre-emergence, SETFA
Experimental: (§1) Seeds of Alopecurus myosuroides (ALOMY), Setaria faberi (SETFA), Echinochloa crus-galli (ECHCG), Solanum nigrum (SOLNI), Amaranthus retroflexus (AMARE) and Ipomoea hederaceae (IPOHE) were sown in standard soil in pots. […] The test plants were then grown under controlled conditions in the glasshouse (at 24/16° C., day/night; 14 hours light; 65% humidity) and watered twice daily. […]

[2] = system: Ipomoea hederaceae (IPOHE); assay: as above; conditions: Ipomoea, 312 h, rate 1,000 g/ha, read-out: Percentage damage caused to weed species, pre-emergence, IPOHE
Experimental: as §1

Solanum nigrum (SOLNI) [3] = assay: as above; conditions: Solanum nigrum, 312 h, rate 1,000 g/ha, read-out: Percentage damage caused to weed species, pre-emergence, SOLNI
Experimental: as §1

[4] = system: Echinochloa crus-galli (ECHCG); assay: as above; conditions: Echinochloa crus-galli, 312 h, rate 1,000 g/ha, read-out: Percentage damage caused to weed species, pre-emergence, ECHCG
Experimental: as §1

[5] = system: Amaranthus retroflexus (AMARE); assay: as above; conditions: Amaranthus retroflexus, 312 h, rate 1,000 g/ha, read-out: Percentage damage caused to weed species, pre-emergence, AMARE
Experimental: as §1

[6] = system: Alopecurus myosuroides (ALOMY); assay: as above; conditions: Alopecurus myosuroides, 312 h, rate 1,000 g/ha, read-out: Percentage damage caused to weed species, pre-emergence, ALOMY
Experimental: as §1

Setaria faberi (SETFA) [7] = assay: Post-emergence biological efficacy, glasshouse, 500 or 1000 g/ha, evaluated after 13 days (100=total damage to plant; 0=no damage to plant); conditions: Setaria faberi, 312 h, rate 1,000 g/ha, read-out: Percentage damage caused to weed species, post-emergence, SETFA
Experimental: as §1, with “Echinochloa […]),” for “Echinochloa crus-galli (ECHCG),”, “grown on” for “grown”, “in a” for “in the”

[8] = system: Ipomoea hederaceae (IPOHE); assay: as above; conditions: Ipomoea, 312 h, rate 1,000 g/ha, read-out: Percentage damage caused to weed species, post-emergence, IPOHE
Experimental: as §1, with “Echinochloa […]),” for “Echinochloa crus-galli (ECHCG),”, “grown on” for “grown”, “in a” for “in the”

Solanum nigrum (SOLNI) [9] = assay: as above; conditions: Solanum nigrum, 312 h, rate 1,000 g/ha, read-out: Percentage damage caused to weed species, post-emergence, SOLNI
Experimental: as §1, with “Echinochloa […]),” for “Echinochloa crus-galli (ECHCG),”, “grown on” for “grown”, “in a” for “in the”

[10] = system: Echinochloa crusgaffi (ECHCG); assay: as above; conditions: Echinochloa, 312 h, rate 1,000 g/ha, read-out: Percentage damage caused to weed species, post-emergence, ECHCG
Experimental: as §1, with “Echinochloa […]),” for “Echinochloa crus-galli (ECHCG),”, “grown on” for “grown”, “in a” for “in the”

[11] = system: Amaranthus retroflexus (AMARE); assay: as above; conditions: Amaranthus retroflexus, 312 h, rate 1,000 g/ha, read-out: Percentage damage caused to weed species, post-emergence, AMARE
Experimental: as §1, with “Echinochloa […]),” for “Echinochloa crus-galli (ECHCG),”, “grown on” for “grown”, “in a” for “in the”

[12] = system: Alopecurus myosuroides (ALOMY); assay: as above; conditions: Alopecurus myosuroides, 312 h, rate 1,000 g/ha, read-out: Percentage damage caused to weed species, post-emergence, ALOMY
Experimental: as §1, with “Echinochloa […]),” for “Echinochloa crus-galli (ECHCG),”, “grown on” for “grown”, “in a” for “in the”

| SMILES | pest or weed control at 1000 g/ha (Setaria faberi (SETFA) [1]) [%] | pest or weed control at 1000 g/ha [2] [%] | pest or weed control at 1000 g/ha (Solanum nigrum (SOLNI) [3]) [%] | pest or weed control at 1000 g/ha [4] [%] | pest or weed control at 1000 g/ha [5] [%] | pest or weed control at 1000 g/ha [6] [%] | pest or weed control at 1000 g/ha (Setaria faberi (SETFA) [7]) [%] | pest or weed control at 1000 g/ha [8] [%] | pest or weed control at 1000 g/ha (Solanum nigrum (SOLNI) [9]) [%] | pest or weed control at 1000 g/ha [10] [%] | pest or weed control at 1000 g/ha [11] [%] | pest or weed control at 1000 g/ha [12] [%] |
| --- | --- | --- | --- | --- | --- | --- | --- | --- | --- | --- | --- | --- |
| COc1c(Cl)ccc(-c2cc3[nH]cc(C)c3c(C(=O)OCc3ccccc3)n2)c1F [Compound 22-86, 4-Benzyloxycarbonyl-6-(4-chloro-2-fluoro-3-methoxyphenyl)-3-methyl-1H-pyrrolo[3,2-c]pyridine] | 0 | 0 | 10 | 0 | 0 | 0 | 0 | 40 | 70 | 10 | 40 | 10 |
| COc1c(Cl)ccc(-c2nc3c(c(C(=O)O)n2)N[C@@H]2CCCC[C@H]2N3)c1F [Compound 91-207, (5aR,9aR)-4-Carboxy-2-(4-chloro-2-fluoro-3-methoxyphenyl)-5,5a,6,7,8,9,9a,10-octahydro-benzo[g]pteridine] | 10 | 0 | 10 | 0 | 20 | 0 | 0 | 60 | 70 | 0 | 20 | 0 |
| CCOC(=O)c1nc(-c2ccc(Cl)c(OC)c2F)nc2[nH]cc(C)c12 [Compound 1-75, 2-(4-Chloro-2-fluoro-3-methoxyphenyl)-4-ethoxycarbonyl-5-methyl-7H-pyrrolo[2,3-d]pyrimidine] | 0 | 0 | 0 | 0 | 0 | 0 | 0 | 70 | 70 | 0 | 40 | 0 |
| Cc1cc2c(C(=O)O)nc(C3CC3)nc2n1Cc1ccccc1[N+](=O)[O-] [Compound 8-5, 4-Carboxy-2-cyclopropyl-6-methyl-7-(2-nitrophenyl-methyl)-7H-pyrrolo[2,3-d]pyrimidine] | 0 | 0 | 0 | 0 | 0 | 0 | 0 | 0 | 0 | 0 | 0 | 0 |
| COC(=O)c1nc(-c2ccc(Cl)c(OC)c2F)cc2c1ccn2Cc1ccco1 [Compound 32-62, 6-(4-Chloro-2-fluoro-3-methoxyphenyl)-1-(2-furanyl-methyl)-4-methoxycarbonyl-1H-pyrrolo[3,2-c]pyridine] | 20 | 20 | 80 | 30 | 80 | 30 | 40 | 70 | 80 | 50 | 80 | 10 |
| COc1c(Cl)ccc(-c2nc(C(=O)O)c3cc(C)[nH]c3n2)c1F [Compound 1-65] | 0 | 0 | 0 | 0 | 0 | 0 | 10 | 60 | 60 | 40 | 40 | 0 |
| COc1c(Cl)ccc(-c2nc(C(=O)O)c3c(C)c[nH]c3n2)c1F [Compound 1-63, 4-carboxy-2-(4-chloro-2-fluoro-3-methoxyphenyl)-5-methyl-7H-pyrrolo[2,3-d]pyrimidine] | 10 | 80 | 90 | 20 | 70 | 30 | 60 | 70 | 100 | 60 | 100 | 40 |
| COc1c(Cl)ccc(-c2nc(C(=O)O)c3cc[nH]c3n2)c1F [Compound 1-61, 4-Carboxy-2-(4-chloro-2-fluoro-3-methoxyphenyl)-7H-pyrrolo[2,3-d]pyrimidine] | 0 | 0 | – | 0 | – | 0 | 40 | 70 | 70 | 20 | 100 | 10 |
| Cc1cc2c(C(=O)O)nc(-c3ccc(Cl)c(F)c3)nc2n1Cc1ccccc1[N+](=O)[O-] [Compound 8-21, 4-Carboxy-2-(4-chloro-3-fluorophenyl)-6-methyl-7-(2-nitrophenyl-methyl)-7H-pyrrolo[2,3-d]pyrimidine] | 20 | 0 | 0 | 0 | – | 0 | 0 | 10 | 20 | 0 | 0 | 10 |
| COc1c(Cl)ccc(-c2nc(C(=O)OCc3ccccc3)c3c(C)c[nH]c3n2)c1F [Compound 1-86, 4-Benzyloxycarbonyl-2-(4-chloro-2-fluoro-3-methoxyphenyl)-5-methyl-7H-pyrrolo[2,3-d]pyrimidine] | 0 | 0 | 10 | 0 | – | 0 | 10 | 30 | 60 | 0 | 40 | 0 |
| COC(=O)c1nc(-c2ccc(Cl)c(OC)c2F)cc2c1c(C)cn2C(C)=O [Compound 36-64, 6-(4-Chloro-2-fluoro-3-methoxyphenyl)-4-methoxycarbonyl-3-methyl-1-methylcarbonyl-1H-pyrrolo[3,2-c]pyridine] | 0 | 20 | 50 | 0 | – | 0 | 10 | 70 | 80 | 0 | 70 | 0 |

Source: US20120202690A1, “HERBICIDAL COMPOUNDS” (SYNGENTA LIMITED, priority 2009, published 2012)
